One block for each molecule: values may come before it. *1 amine or outer side, *2 acyl side, *3 side chain or, on linkers, in order; H or OH if unused. Where a SMILES comes first, the peptide text is derived from it. Side-chain parts run from the residue outwards. [ ]: non-standard residue; d: D form. The star is where a group is joined. γGlu = O=C(O)[C@H](CCC(=O)[*:2])N[*:1]; Stearoyl = CCCCCCCCCCCCCCCCCC(=O)*; AEEA = NCCOCCOCC(=O)O; Aib = CC(C)(N)C(=O)O
Columns and labels:
[1] = target: Human glucagon receptors (Homo sapiens, UniProt P47871); assay: Glucagon receptor activation assay (CRE-luciferase reporter, CHO-K1)
[2] = target: Human GLP-1 receptors (Homo sapiens, UniProt P43220); assay: GLP-1 receptor activation assay (CRE-luciferase reporter, CHO-K1)
Chain of Human GLP-1 receptors (P43220 24-463): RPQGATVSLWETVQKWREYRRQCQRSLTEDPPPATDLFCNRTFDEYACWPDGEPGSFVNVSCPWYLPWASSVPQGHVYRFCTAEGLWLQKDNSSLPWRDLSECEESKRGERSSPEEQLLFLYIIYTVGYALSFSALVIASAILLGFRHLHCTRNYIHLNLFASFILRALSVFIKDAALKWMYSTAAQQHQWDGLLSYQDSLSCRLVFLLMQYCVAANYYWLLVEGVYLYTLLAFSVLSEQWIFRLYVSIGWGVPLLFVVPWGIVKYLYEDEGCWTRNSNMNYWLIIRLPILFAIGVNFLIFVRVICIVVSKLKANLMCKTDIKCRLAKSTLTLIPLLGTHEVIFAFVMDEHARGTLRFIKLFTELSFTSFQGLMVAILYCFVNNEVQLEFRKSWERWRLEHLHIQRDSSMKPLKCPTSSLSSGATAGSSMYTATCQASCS

Chain of Human glucagon receptors (P47871 26-477): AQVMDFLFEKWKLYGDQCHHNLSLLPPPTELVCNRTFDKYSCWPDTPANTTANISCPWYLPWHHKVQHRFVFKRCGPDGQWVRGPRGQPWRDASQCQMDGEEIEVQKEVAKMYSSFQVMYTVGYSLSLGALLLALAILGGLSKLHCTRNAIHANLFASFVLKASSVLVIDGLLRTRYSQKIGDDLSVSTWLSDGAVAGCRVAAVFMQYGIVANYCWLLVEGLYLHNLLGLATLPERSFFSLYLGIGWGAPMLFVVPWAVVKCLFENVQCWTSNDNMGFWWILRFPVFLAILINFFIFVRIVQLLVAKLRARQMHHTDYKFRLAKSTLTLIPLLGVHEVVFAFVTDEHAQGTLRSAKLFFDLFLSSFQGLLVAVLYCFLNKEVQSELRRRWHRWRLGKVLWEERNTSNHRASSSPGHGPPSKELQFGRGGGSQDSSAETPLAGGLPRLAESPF

Compound: CCCCCCCCCCCCCCCCCC(=O)N[C@@H](CCC(=O)NCCOCCOCC(=O)NCCOCCOCC(=O)NCCCC[C@H](NC(=O)[C@H](CC(=O)O)NC(=O)[C@H](CO)NC(=O)[C@@H](NC(=O)[C@H](Cc1ccccc1)NC(=O)[C@@H](NC(=O)CNC(=O)[C@H](CCC(N)=O)NC(=O)C(C)(C)NC(=O)[C@@H](N)Cc1c[nH]cn1)[C@@H](C)O)[C@@H](C)O)C(=O)N[C@@H](CO)C(=O)N[C@@H](CCCCN)C(=O)N[C@@H](Cc1ccc(O)cc1)C(=O)N[C@@H](CC(C)C)C(=O)N[C@@H](CC(=O)O)C(=O)N[C@H]1CCC(=O)NCC(=O)NCCCC[C@@H](C(=O)N[C@@H](CC(=O)O)C(=O)N[C@@H](Cc2ccccc2)C(=O)N[C@H](C(=O)N[C@@H](CCC(N)=O)C(=O)N[C@@H](Cc2c[nH]c3ccccc23)C(=O)N[C@@H](CC(C)C)C(=O)N[C@@H](CCSC)C(=O)N[C@@H](CC(N)=O)C(=O)N[C@H](C(=O)N[C@@H](CCCCN)C(=O)O)[C@@H](C)O)C(C)C)NC(=O)[C@H](C)NC(=O)[C@H](CCCNC(=N)N)NC(=O)[C@H](CCCNC(=N)N)NC1=O)C(=O)O [Compound 35, H-HAibQGTFTSDZSKYLDERRAKDFVQWLMNTK-OH]
- EC50 [1]: < 0.01 nM
- EC50 [2]: < 0.01 nM

Compound: CCCCCCCCCCCCCCCCCC(=O)N[C@@H](CCC(=O)NCCOCCOCC(=O)NCCOCCOCC(=O)NCCCC[C@H](NC(=O)[C@H](CC(=O)O)NC(=O)[C@H](CO)NC(=O)[C@@H](NC(=O)[C@H](Cc1ccccc1)NC(=O)[C@@H](NC(=O)CNC(=O)[C@H](CCC(N)=O)NC(=O)C(C)(C)NC(=O)[C@@H](N)Cc1c[nH]cn1)[C@@H](C)O)[C@@H](C)O)C(=O)N[C@@H](CO)C(=O)N[C@@H](CCCCN)C(=O)N[C@@H](Cc1ccc(O)cc1)C(=O)N[C@@H](CC(C)C)C(=O)N[C@@H](CC(=O)O)C(=O)N[C@H]1CC(=O)NCC(=O)NCCCC[C@@H](C(=O)N[C@@H](CC(=O)O)C(=O)N[C@@H](Cc2ccccc2)C(=O)N[C@H](C(=O)N[C@@H](CCC(N)=O)C(=O)N[C@@H](Cc2c[nH]c3ccccc23)C(=O)N[C@@H](CC(C)C)C(=O)N[C@@H](CCSC)C(=O)N[C@@H](CC(N)=O)C(=O)N[C@H](C(=O)N[C@@H](CCCCN)C(=O)O)[C@@H](C)O)C(C)C)NC(=O)[C@H](C)NC(=O)[C@H](CCCNC(=N)N)NC(=O)[C@H](CCCNC(=N)N)NC1=O)C(=O)O [Compound 37, H-HAibQGTFTSDZSKYLDDRRAKDFVQWLMNTK-OH]
- EC50 [1]: < 0.01 nM
- EC50 [2]: < 0.01 nM

Compound: CCCCCCCCCCCCCCCCCC(=O)N[C@@H](CCC(=O)NCCOCCOCC(=O)NCCOCCOCC(=O)NCCCC[C@H](NC(=O)[C@H](CC(=O)O)NC(=O)[C@H](CO)NC(=O)[C@@H](NC(=O)[C@H](Cc1ccccc1)NC(=O)[C@@H](NC(=O)CNC(=O)[C@H](CCC(N)=O)NC(=O)C(C)(C)NC(=O)[C@@H](N)Cc1c[nH]cn1)[C@@H](C)O)[C@@H](C)O)C(=O)N[C@@H](CO)C(=O)N[C@@H](CCCCN)C(=O)N[C@@H](Cc1ccc(O)cc1)C(=O)N[C@@H](CC(C)C)C(=O)N[C@@H](CC(=O)O)C(=O)N[C@H]1CC(=O)N[C@@H](CC(C)C)C(=O)NCCCC[C@@H](C(=O)N[C@@H](CC(=O)O)C(=O)N[C@@H](Cc2ccccc2)C(=O)N[C@H](C(=O)N[C@@H](CCC(N)=O)C(=O)N[C@@H](Cc2c[nH]c3ccccc23)C(=O)N[C@@H](CC(C)C)C(=O)N[C@@H](CCSC)C(=O)N[C@@H](CC(N)=O)C(=O)N[C@H](C(=O)N[C@@H](CCCCN)C(=O)O)[C@@H](C)O)C(C)C)NC(=O)[C@H](C)NC(=O)[C@H](CCCNC(=N)N)NC(=O)[C@H](CCCNC(=N)N)NC1=O)C(=O)O [Compound 38, H-HAibQGTFTSDZSKYLDDRRAKDFVQWLMNTK-OH]
- EC50 [1]: < 0.01 nM
- EC50 [2]: < 0.01 nM

Compound: CSCC[C@H](NC(=O)[C@H](CC(C)C)NC(=O)[C@H](Cc1c[nH]c2ccccc12)NC(=O)[C@H](CCC(N)=O)NC(=O)[C@@H](NC(=O)[C@H](Cc1ccccc1)NC(=O)[C@H](CC(=O)O)NC(=O)[C@H](CCC(N)=O)NC(=O)[C@H](C)NC(=O)[C@H](CCCNC(=N)N)NC(=O)[C@H](CCCNC(=N)N)NC(=O)C(C)(C)NC(=O)[C@H](CC(=O)O)NC(=O)[C@H](CC(C)C)NC(=O)[C@H](Cc1ccc(O)cc1)NC(=O)[C@H](CCCCN)NC(=O)[C@H](CO)NC(=O)[C@H](CCCCN)NC(=O)[C@H](CC(=O)O)NC(=O)[C@H](CO)NC(=O)[C@@H](NC(=O)[C@H](Cc1ccccc1)NC(=O)[C@@H](NC(=O)CNC(=O)[C@H](CCC(N)=O)NC(=O)C(C)(C)NC(=O)[C@@H](N)Cc1c[nH]cn1)[C@@H](C)O)[C@@H](C)O)C(C)C)C(=O)N[C@@H](CC(N)=O)C(=O)N[C@H](C(=O)N[C@@H](CCCCN)C(=O)O)[C@@H](C)O [Compound 39]
- EC50 [1]: > 1 nM
- EC50 [2]: > 1 nM

Compound: CCCCCCCCCCCCCCCCCC(=O)N[C@@H](CCC(=O)NCCOCCOCC(=O)NCCOCCOCC(=O)NCCCC[C@H](NC(=O)[C@H](CO)NC(=O)[C@@H](NC(=O)[C@H](Cc1ccccc1)NC(=O)[C@@H](NC(=O)CNC(=O)[C@H](CCC(N)=O)NC(=O)C(C)(C)NC(=O)[C@@H](N)Cc1c[nH]cn1)[C@@H](C)O)[C@@H](C)O)C(=O)N[C@@H](Cc1ccc(O)cc1)C(=O)N[C@@H](CO)C(=O)N[C@@H](CCCCN)C(=O)N[C@@H](Cc1ccc(O)cc1)C(=O)N[C@@H](CC(C)C)C(=O)N[C@@H](CC(=O)O)C(=O)NC(C)(C)C(=O)N[C@@H](CCCNC(=N)N)C(=O)N[C@@H](CCCNC(=N)N)C(=O)N[C@@H](C)C(=O)N[C@@H](CCC(N)=O)C(=O)N[C@@H](CC(=O)O)C(=O)N[C@@H](Cc1ccccc1)C(=O)N[C@H](C(=O)N[C@@H](CCC(N)=O)C(=O)N[C@@H](Cc1c[nH]c2ccccc12)C(=O)N[C@@H](CC(C)C)C(=O)N[C@@H](CCSC)C(=O)N[C@@H](CC(N)=O)C(=O)N[C@H](C(=O)N[C@@H](CCCCN)C(=O)O)[C@@H](C)O)C(C)C)C(=O)O [Compound 40] (H-H[Aib]QGTFTSK([AEEA-AEEA-γGlu-Stearoyl])YSKYLD[Aib]RRAQDFVQWLMNTK-OH)
- EC50 [1]: > 1 nM
- EC50 [2]: 0.1 to 1 nM

The next lines start with the values.

- EC50 [1]: < 0.01 nM
- EC50 [2]: < 0.01 nM
Compound: CCCCCCCCCCCCCCCCCC(=O)N[C@@H](CCC(=O)NCCOCCOCC(=O)NCCOCCOCC(=O)NCCCC[C@H](NC(=O)[C@H](CC(=O)O)NC(=O)[C@H](CO)NC(=O)[C@@H](NC(=O)[C@H](Cc1ccccc1)NC(=O)[C@@H](NC(=O)CNC(=O)[C@H](CCC(N)=O)NC(=O)C(C)(C)NC(=O)[C@@H](N)Cc1c[nH]cn1)[C@@H](C)O)[C@@H](C)O)C(=O)N[C@@H](CO)C(=O)N[C@@H](CCCCN)C(=O)N[C@@H](Cc1ccc(O)cc1)C(=O)N[C@@H](CC(C)C)C(=O)N[C@@H](CC(=O)O)C(=O)N[C@H]1CCCCNC(=O)c2ccc(cc2)C(=O)NCCCC[C@@H](C(=O)N[C@@H](CC(=O)O)C(=O)N[C@@H](Cc2ccccc2)C(=O)N[C@H](C(=O)N[C@@H](CCC(N)=O)C(=O)N[C@@H](Cc2c[nH]c3ccccc23)C(=O)N[C@@H](CC(C)C)C(=O)N[C@@H](CCSC)C(=O)N[C@@H](CC(N)=O)C(=O)N[C@H](C(=O)N[C@@H](CCCCN)C(=O)O)[C@@H](C)O)C(C)C)NC(=O)[C@H](C)NC(=O)[C@H](CCCNC(=N)N)NC(=O)[C@H](CCCNC(=N)N)NC1=O)C(=O)O [Compound 31, H-HAibQGTFTSDZSKYLDKRRAKDFVQWLMNTK-OH]

- EC50 [1]: < 0.01 nM
- EC50 [2]: < 0.01 nM
Compound: CCCCCCCCCCCCCCCCCC(=O)N[C@@H](CCC(=O)NCCOCCOCC(=O)NCCOCCOCC(=O)NCCCC[C@H](NC(=O)[C@H](CC(=O)O)NC(=O)[C@H](CO)NC(=O)[C@@H](NC(=O)[C@H](Cc1ccccc1)NC(=O)[C@@H](NC(=O)CNC(=O)[C@H](CCC(N)=O)NC(=O)C(C)(C)NC(=O)[C@@H](N)Cc1c[nH]cn1)[C@@H](C)O)[C@@H](C)O)C(=O)N[C@@H](CO)C(=O)N[C@@H](CCCCN)C(=O)N[C@@H](Cc1ccc(O)cc1)C(=O)N[C@@H](CC(C)C)C(=O)N[C@@H](CC(=O)O)C(=O)N[C@H]1CCCCNC(=O)C2CCN(CC2)C(=O)CC[C@@H](C(=O)N[C@@H](CC(=O)O)C(=O)N[C@@H](Cc2ccccc2)C(=O)N[C@H](C(=O)N[C@@H](CCC(N)=O)C(=O)N[C@@H](Cc2c[nH]c3ccccc23)C(=O)N[C@@H](CC(C)C)C(=O)N[C@@H](CCSC)C(=O)N[C@@H](CC(N)=O)C(=O)N[C@H](C(=O)N[C@@H](CCCCN)C(=O)O)[C@@H](C)O)C(C)C)NC(=O)[C@H](C)NC(=O)[C@H](CCCNC(=N)N)NC(=O)[C@H](CCCNC(=N)N)NC1=O)C(=O)O [Compound 32, H-HA1 bQGTFTSDZSKYLDKRRAEDFVQWLMNTK-OH]

- EC50 [1]: < 0.01 nM
- EC50 [2]: < 0.01 nM
Compound: CCCCCCCCCCCCCCCCCC(=O)N[C@@H](CCC(=O)NCCOCCOCC(=O)NCCOCCOCC(=O)NCCCC[C@H](NC(=O)[C@H](CC(=O)O)NC(=O)[C@H](CO)NC(=O)[C@@H](NC(=O)[C@H](Cc1ccccc1)NC(=O)[C@@H](NC(=O)CNC(=O)[C@H](CCC(N)=O)NC(=O)C(C)(C)NC(=O)[C@@H](N)Cc1c[nH]cn1)[C@@H](C)O)[C@@H](C)O)C(=O)N[C@@H](CO)C(=O)N[C@@H](CCCCN)C(=O)N[C@@H](Cc1ccc(O)cc1)C(=O)N[C@@H](CC(C)C)C(=O)N[C@@H](CC(=O)O)C(=O)N[C@H]1CCC(=O)NC2CCC(CC2)C(=O)NCCCC[C@@H](C(=O)N[C@@H](CC(=O)O)C(=O)N[C@@H](Cc2ccccc2)C(=O)N[C@H](C(=O)N[C@@H](CCC(N)=O)C(=O)N[C@@H](Cc2c[nH]c3ccccc23)C(=O)N[C@@H](CC(C)C)C(=O)N[C@@H](CCSC)C(=O)N[C@@H](CC(N)=O)C(=O)N[C@H](C(=O)N[C@@H](CCCCN)C(=O)O)[C@@H](C)O)C(C)C)NC(=O)[C@H](C)NC(=O)[C@H](CCCNC(=N)N)NC(=O)[C@H](CCCNC(=N)N)NC1=O)C(=O)O [Compound 33, H-HAibQGTFTSDZSKYLDERRAKDFVQWLMNTK-OH]

From patent US11713344B2 (DONG-A ST CO., LTD., priority 2017, dated 2023)
